Measured values as given in patent US9611248B2, “Chemical compounds” (Syngenta Participations AG, priority 2013, dated 2017).

Test system: a variety of test species
Test: Post-emergence herbicidal activity
Format: in vivo
Design: key to ABUTH (Abutilon theophrasti) damage score / AMARE (Amaranthus retroflexus) damage score / ALOMY (Alopecurus myosuroides) damage score / ECHCG (Echinochloa crus-galli) damage score / ZEAMX (Zea mays) damage score / SOLNI (Solanum nigrum) damage score: 0 = no damage to plant, 5 = total damage to plant
Conditions: rate 1000 g/ha, evaluated after 13 days
Summary of the method: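 Plants grown for 8 days in pots were sprayed post-emergence with compound in acetone/water (50:50) containing 0.5% Tween 20. They were kept in a glasshouse at 24/16 °C day/night, 14 h light, 65% humidity, watered twice daily. Damage was scored after 13 days (0 none to 5 total).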

COC1=C(C)C(=O)N(c2cc(C)c(-c3ccccc3OC)cn2)C1O (stereo not drawn) [AD110]
ABUTH (Abutilon theophrasti) damage score: 5 | ALOMY (Alopecurus myosuroides) damage score: 2 | AMARE (Amaranthus retroflexus) damage score: 5 | ECHCG (Echinochloa crus-galli) damage score: 1 | SETFA (Setaria faberi) damage score: 2 | ZEAMX (Zea mays) damage score: 0

COC1=C(C)C(=O)N(c2cc(C)c(-c3ccc(C#N)cc3)cn2)C1O (stereo not drawn) [AD111]
ABUTH (Abutilon theophrasti) damage score: 5 | ALOMY (Alopecurus myosuroides) damage score: 2 | AMARE (Amaranthus retroflexus) damage score: 5 | ECHCG (Echinochloa crus-galli) damage score: 1 | SETFA (Setaria faberi) damage score: 4 | ZEAMX (Zea mays) damage score: 1

COC1=C(C)C(=O)N(c2cc(C)c(-c3ccc4c(c3)OCO4)cn2)C1O (stereo not drawn) [AD112]
ABUTH (Abutilon theophrasti) damage score: 4 | ALOMY (Alopecurus myosuroides) damage score: 2 | AMARE (Amaranthus retroflexus) damage score: 5 | ECHCG (Echinochloa crus-galli) damage score: 3 | SETFA (Setaria faberi) damage score: 3 | ZEAMX (Zea mays) damage score: 1

COC1=C(C)C(=O)N(c2cc(C)c(-c3ccoc3)cn2)C1O (stereo not drawn) [AD113]
ABUTH (Abutilon theophrasti) damage score: 3 | ALOMY (Alopecurus myosuroides) damage score: 2 | AMARE (Amaranthus retroflexus) damage score: 5 | ECHCG (Echinochloa crus-galli) damage score: 2 | SETFA (Setaria faberi) damage score: 1 | ZEAMX (Zea mays) damage score: 1

COC1=C(C)C(=O)N(c2cc(C)c(-c3cc(F)c(F)c(F)c3)cn2)C1O (stereo not drawn) [AD114]
ABUTH (Abutilon theophrasti) damage score: 4 | ALOMY (Alopecurus myosuroides) damage score: 2 | AMARE (Amaranthus retroflexus) damage score: 5 | ECHCG (Echinochloa crus-galli) damage score: 1 | SETFA (Setaria faberi) damage score: 3 | ZEAMX (Zea mays) damage score: 0

COC1=C(C)C(=O)N(c2cc(C)c(-c3ccc(OC)cc3)cn2)C1O (stereo not drawn) [AD115]
ABUTH (Abutilon theophrasti) damage score: 5 | ALOMY (Alopecurus myosuroides) damage score: 2 | AMARE (Amaranthus retroflexus) damage score: 5 | ECHCG (Echinochloa crus-galli) damage score: 1 | SETFA (Setaria faberi) damage score: 1 | ZEAMX (Zea mays) damage score: 1

COC1=C(C)C(=O)N(c2cc(C)c(-c3ccc([N+](=O)[O-])cc3)cn2)C1O (stereo not drawn) [AD116]
ABUTH (Abutilon theophrasti) damage score: 2 | ALOMY (Alopecurus myosuroides) damage score: 0 | AMARE (Amaranthus retroflexus) damage score: 5 | ECHCG (Echinochloa crus-galli) damage score: 0 | SETFA (Setaria faberi) damage score: 1 | ZEAMX (Zea mays) damage score: 1

COC1=C(C)C(=O)N(c2cc(C)c(-c3ccc(OC)c(OC)c3)cn2)C1O (stereo not drawn) [AD117]
ABUTH (Abutilon theophrasti) damage score: 5 | ALOMY (Alopecurus myosuroides) damage score: 2 | AMARE (Amaranthus retroflexus) damage score: 5 | ECHCG (Echinochloa crus-galli) damage score: 1 | SETFA (Setaria faberi) damage score: 4 | ZEAMX (Zea mays) damage score: 0

COC1=C(C)C(=O)N(c2cc(C)c(-c3cccc([N+](=O)[O-])c3)cn2)C1O (stereo not drawn) [AD118]
ABUTH (Abutilon theophrasti) damage score: 5 | ALOMY (Alopecurus myosuroides) damage score: 2 | AMARE (Amaranthus retroflexus) damage score: 5 | ECHCG (Echinochloa crus-galli) damage score: 2 | SETFA (Setaria faberi) damage score: 4 | ZEAMX (Zea mays) damage score: 0

COC1=C(C)C(=O)N(c2cc(C)c(-c3ccc(C)c([N+](=O)[O-])c3)cn2)C1O (stereo not drawn) [AD119]
ABUTH (Abutilon theophrasti) damage score: 2 | ALOMY (Alopecurus myosuroides) damage score: 2 | AMARE (Amaranthus retroflexus) damage score: 5 | ECHCG (Echinochloa crus-galli) damage score: 1 | SETFA (Setaria faberi) damage score: 1 | ZEAMX (Zea mays) damage score: 0

COC1=C(C)C(=O)N(c2cc(C)c(-c3ccccc3[N+](=O)[O-])cn2)C1O (stereo not drawn) [AD120]
ABUTH (Abutilon theophrasti) damage score: 5 | ALOMY (Alopecurus myosuroides) damage score: 2 | AMARE (Amaranthus retroflexus) damage score: 5 | ECHCG (Echinochloa crus-galli) damage score: 4 | SETFA (Setaria faberi) damage score: 4 | ZEAMX (Zea mays) damage score: 0

COC1=C(C)C(=O)N(c2cc(C)c(-c3ccccc3F)cn2)C1O (stereo not drawn) [AD121]
ABUTH (Abutilon theophrasti) damage score: 5 | ALOMY (Alopecurus myosuroides) damage score: 3 | AMARE (Amaranthus retroflexus) damage score: 5 | ECHCG (Echinochloa crus-galli) damage score: 3 | SETFA (Setaria faberi) damage score: 5 | ZEAMX (Zea mays) damage score: 1

COC1=C(C)C(=O)N(c2cc(C)c(-c3ccc(F)cc3F)cn2)C1O (stereo not drawn) [AD122]
ABUTH (Abutilon theophrasti) damage score: 5 | ALOMY (Alopecurus myosuroides) damage score: 3 | AMARE (Amaranthus retroflexus) damage score: 5 | ECHCG (Echinochloa crus-galli) damage score: 4 | SETFA (Setaria faberi) damage score: 4 | ZEAMX (Zea mays) damage score: 0

COC1=C(C)C(=O)N(c2cc(C(F)(F)F)c(-c3ccoc3)cn2)C1O (stereo not drawn) [AD124]
ABUTH (Abutilon theophrasti) damage score: 2 | ALOMY (Alopecurus myosuroides) damage score: 2 | AMARE (Amaranthus retroflexus) damage score: 5 | ECHCG (Echinochloa crus-galli) damage score: 2 | SETFA (Setaria faberi) damage score: 4 | ZEAMX (Zea mays) damage score: 0

COC1=C(C)C(=O)N(c2cc(C(F)(F)F)c(-c3ccc(S(C)(=O)=O)cc3)cn2)C1O (stereo not drawn) [AD125]
ABUTH (Abutilon theophrasti) damage score: 4 | ALOMY (Alopecurus myosuroides) damage score: 4 | AMARE (Amaranthus retroflexus) damage score: 5 | ECHCG (Echinochloa crus-galli) damage score: 4 | SETFA (Setaria faberi) damage score: 4 | ZEAMX (Zea mays) damage score: 1

COC1=C(C)C(=O)N(c2cc(C(F)(F)F)c(-c3cc(F)c(F)c(F)c3)cn2)C1O (stereo not drawn) [AD126]
ABUTH (Abutilon theophrasti) damage score: 5 | ALOMY (Alopecurus myosuroides) damage score: 3 | AMARE (Amaranthus retroflexus) damage score: 5 | ECHCG (Echinochloa crus-galli) damage score: 3 | SETFA (Setaria faberi) damage score: 5 | ZEAMX (Zea mays) damage score: 1

COC1=C(C)C(=O)N(c2cc(C(F)(F)F)c(-c3ccc(C)c([N+](=O)[O-])c3)cn2)C1O (stereo not drawn) [AD127]
ABUTH (Abutilon theophrasti) damage score: 2 | ALOMY (Alopecurus myosuroides) damage score: 1 | AMARE (Amaranthus retroflexus) damage score: 5 | ECHCG (Echinochloa crus-galli) damage score: 4 | SETFA (Setaria faberi) damage score: 4 | ZEAMX (Zea mays) damage score: 4

COC1=C(C)C(=O)N(c2cc(C(F)(F)F)c(-c3ccccc3)cn2)C1O (stereo not drawn) [AD128]
ABUTH (Abutilon theophrasti) damage score: 5 | ALOMY (Alopecurus myosuroides) damage score: 3 | AMARE (Amaranthus retroflexus) damage score: 5 | ECHCG (Echinochloa crus-galli) damage score: 5 | SETFA (Setaria faberi) damage score: 5 | ZEAMX (Zea mays) damage score: 2

COC1=C(C)C(=O)N(c2cc(C(F)(F)F)c(-c3ccccc3[N+](=O)[O-])cn2)C1O (stereo not drawn) [AD129]
ABUTH (Abutilon theophrasti) damage score: 5 | ALOMY (Alopecurus myosuroides) damage score: 2 | AMARE (Amaranthus retroflexus) damage score: 5 | ECHCG (Echinochloa crus-galli) damage score: 4 | SETFA (Setaria faberi) damage score: 4 | ZEAMX (Zea mays) damage score: 2

COC1=C(C)C(=O)N(c2cc(C(F)(F)F)c(-c3ccc(F)cc3F)cn2)C1O (stereo not drawn) [AD131]
ABUTH (Abutilon theophrasti) damage score: 5 | ALOMY (Alopecurus myosuroides) damage score: 2 | AMARE (Amaranthus retroflexus) damage score: 5 | ECHCG (Echinochloa crus-galli) damage score: 4 | SETFA (Setaria faberi) damage score: 4 | ZEAMX (Zea mays) damage score: 1

COC1=C(C)C(=O)N(c2cc(C(F)(F)F)c(-c3ccccc3C)cn2)C1O (stereo not drawn) [AD132]
ABUTH (Abutilon theophrasti) damage score: 5 | ALOMY (Alopecurus myosuroides) damage score: 2 | AMARE (Amaranthus retroflexus) damage score: 5 | ECHCG (Echinochloa crus-galli) damage score: 4 | SETFA (Setaria faberi) damage score: 5 | ZEAMX (Zea mays) damage score: 2

COC1=C(C)C(=O)N(c2cc(C(F)(F)F)c(-c3cccc(F)c3)cn2)C1O (stereo not drawn) [AD133]
ABUTH (Abutilon theophrasti) damage score: 5 | ALOMY (Alopecurus myosuroides) damage score: 2 | AMARE (Amaranthus retroflexus) damage score: 5 | ECHCG (Echinochloa crus-galli) damage score: 4 | SETFA (Setaria faberi) damage score: 4 | ZEAMX (Zea mays) damage score: 3

COC1=C(C)C(=O)N(c2cc(Cl)c(-c3ccsc3)cn2)C1O (stereo not drawn) [AD134]
ABUTH (Abutilon theophrasti) damage score: 3 | ALOMY (Alopecurus myosuroides) damage score: 1 | AMARE (Amaranthus retroflexus) damage score: 5 | ECHCG (Echinochloa crus-galli) damage score: 2 | SETFA (Setaria faberi) damage score: 5 | ZEAMX (Zea mays) damage score: 1

COC1=C(Br)C(O)N(c2cc(C(F)(F)F)ccn2)C1=O (stereo not drawn) [AE1, 3-bromo-2-hydroxy-4-methoxy-1-[4-(trifluoromethyl)-2-pyridyl]-2H-pyrrol-5-one]
ABUTH (Abutilon theophrasti) damage score: 4 | ALOMY (Alopecurus myosuroides) damage score: 3 | AMARE (Amaranthus retroflexus) damage score: 5 | ECHCG (Echinochloa crus-galli) damage score: 5 | SETFA (Setaria faberi) damage score: 3 | ZEAMX (Zea mays) damage score: 0

COC1=C(Br)C(O)N(c2cc(C(C)(C)C)ccn2)C1=O (stereo not drawn) [AE2]
ABUTH (Abutilon theophrasti) damage score: 4 | ALOMY (Alopecurus myosuroides) damage score: 1 | AMARE (Amaranthus retroflexus) damage score: 2 | ECHCG (Echinochloa crus-galli) damage score: 2 | SETFA (Setaria faberi) damage score: 4 | ZEAMX (Zea mays) damage score: 1

COC1=C(Cl)C(O)N(c2cc(C(C)(C)C)ccn2)C1=O (stereo not drawn) [AF1]
ABUTH (Abutilon theophrasti) damage score: 5 | ALOMY (Alopecurus myosuroides) damage score: 2 | AMARE (Amaranthus retroflexus) damage score: 5 | ECHCG (Echinochloa crus-galli) damage score: 4 | SETFA (Setaria faberi) damage score: 4 | ZEAMX (Zea mays) damage score: 1

COC1=C(Cl)C(O)N(c2cc(C(F)(F)F)ccn2)C1=O (stereo not drawn) [AF2]
ABUTH (Abutilon theophrasti) damage score: 5 | ALOMY (Alopecurus myosuroides) damage score: 4 | AMARE (Amaranthus retroflexus) damage score: 5 | ECHCG (Echinochloa crus-galli) damage score: 5 | SETFA (Setaria faberi) damage score: 5 | ZEAMX (Zea mays) damage score: 3

COC1=C(Cl)C(O)N(c2cc(C(C)(F)F)ccn2)C1=O (stereo not drawn) [AF3]
ABUTH (Abutilon theophrasti) damage score: 5 | ALOMY (Alopecurus myosuroides) damage score: 3 | AMARE (Amaranthus retroflexus) damage score: 5 | ECHCG (Echinochloa crus-galli) damage score: 5 | SETFA (Setaria faberi) damage score: 5 | ZEAMX (Zea mays) damage score: 1

COc1nnc(N2C(=O)C(C)=C(Cl)C2O)cc1C (stereo not drawn) [BA1]
ABUTH (Abutilon theophrasti) damage score: 2 | ALOMY (Alopecurus myosuroides) damage score: 2 | AMARE (Amaranthus retroflexus) damage score: 3 | ECHCG (Echinochloa crus-galli) damage score: 1 | SETFA (Setaria faberi) damage score: 2 | ZEAMX (Zea mays) damage score: 1

COc1nnc(N2C(=O)C(C)=C(Br)C2O)cc1C (stereo not drawn) [BB1]
ABUTH (Abutilon theophrasti) damage score: 1 | ALOMY (Alopecurus myosuroides) damage score: 0 | AMARE (Amaranthus retroflexus) damage score: 0 | ECHCG (Echinochloa crus-galli) damage score: 1 | SETFA (Setaria faberi) damage score: 2 | ZEAMX (Zea mays) damage score: 0
